# From the supplement of paper PMC10307832
# Columns and labels:
# Test in all cases: relative viability (nuclei count vs DMSO), 5 days (fraction); higher = more cells survive
# HCC-15 = system: HCC-15
# Method in brief: (§1)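 Values are medians from duplicate plates. Each reflects relative viability, defined as the nuclei count of treated wells over that of vehicle wells. Lung cancer cell lines in 1536-well plates were pin-tool dosed one day after seeding with one drug alone or with a fixed anchor-drug dose plus five library-drug doses (not always all listed) in √10 steps, then fixed, stained and imaged at 4× after 5 days.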
# NCI-H1915 = system: NCI-H1915
# Method in brief: as §1
# NCI-H2126 = system: NCI-H2126
# Method in brief: as §1
# EMC-BAC-2 = system: EMC-BAC-2
# Method in brief: as §1
# EKVX = system: EKVX
# Method in brief: as §1
# HCC-827 = system: HCC-827
# Method in brief: as §1
# NCI-H1793 = system: NCI-H1793
# Method in brief: as §1
# LU99A = system: LU99A
# Method in brief: as §1
# LCLC-97TM1 = system: LCLC-97TM1
# Method in brief: as §1
# NCI-H1944 = system: NCI-H1944
# Method in brief: as §1
# ChaGo-K-1 = system: ChaGo-K-1
# Method in brief: as §1
# H3255 = system: H3255
# Method in brief: as §1
# NCI-H441 = system: NCI-H441
# Method in brief: as §1
# NCI-H1792 = system: NCI-H1792
# Method in brief: as §1
# NCI-H460 = system: NCI-H460
# Method in brief: as §1
# LC-2-ad = system: LC-2-ad
# Method in brief: as §1
# NCI-H23 = system: NCI-H23
# Method in brief: as §1
# NCI-H1437 = system: NCI-H1437
# Method in brief: as §1
# PC-3 [JPC-3] = system: PC-3 [JPC-3]
# Method in brief: as §1
# HARA = system: HARA
# Method in brief: as §1
# NCI-H322M = system: NCI-H322M
# Method in brief: as §1
compound,measurement,setting,value
O=C(O)CCCCC(CCSCc1ccccc1)SCc1ccccc1 (stereo not drawn) [CPI-613] + NC(=O)Nc1cc(-c2cccc(F)c2)sc1C(=O)N[C@H]1CCCNC1 [AZD7762] (partner 0.2 µM),relative viability,HCC-15; first compound 5 µM,1.21
same,relative viability,HCC-15; first compound 15.81 µM,1.04
same,relative viability,HCC-15; first compound 50 µM,1.14
same,relative viability,HCC-15; first compound 158.11 µM,0.819
same,relative viability,HCC-15; first compound 500 µM,0.476
same,relative viability,NCI-H1915; first compound 5 µM,0.684
same,relative viability,NCI-H1915; first compound 15.81 µM,0.639
same,relative viability,NCI-H1915; first compound 50 µM,0.627
same,relative viability,NCI-H1915; first compound 158.11 µM,0.535
same,relative viability,NCI-H1915; first compound 500 µM,0.303
same,relative viability,NCI-H2126; first compound 5 µM,0.935
same,relative viability,NCI-H2126; first compound 15.81 µM,0.966
same,relative viability,NCI-H2126; first compound 50 µM,0.991
same,relative viability,NCI-H2126; first compound 158.11 µM,0.348
same,relative viability,NCI-H2126; first compound 500 µM,0.788
same,relative viability,EMC-BAC-2; first compound 5 µM,1.1
same,relative viability,EMC-BAC-2; first compound 15.81 µM,1.05
same,relative viability,EMC-BAC-2; first compound 50 µM,1.14
same,relative viability,EMC-BAC-2; first compound 158.11 µM,0.902
same,relative viability,EMC-BAC-2; first compound 500 µM,0.529
same,relative viability,EKVX; first compound 5 µM,0.731
same,relative viability,EKVX; first compound 15.81 µM,0.646
same,relative viability,EKVX; first compound 50 µM,0.505
same,relative viability,EKVX; first compound 500 µM,0.62
same,relative viability,HCC-827; first compound 5 µM,0.217
same,relative viability,HCC-827; first compound 15.81 µM,0.181
same,relative viability,HCC-827; first compound 50 µM,0.201
same,relative viability,HCC-827; first compound 158.11 µM,0.179
same,relative viability,HCC-827; first compound 500 µM,0.127
same,relative viability,NCI-H1793; first compound 5 µM,0.447
same,relative viability,NCI-H1793; first compound 15.81 µM,0.367
same,relative viability,NCI-H1793; first compound 50 µM,0.372
same,relative viability,NCI-H1793; first compound 158.11 µM,0.11
same,relative viability,NCI-H1793; first compound 500 µM,0.0077
same,relative viability,LU99A; first compound 5 µM,0.338
same,relative viability,LU99A; first compound 15.81 µM,0.326
same,relative viability,LU99A; first compound 50 µM,0.322
same,relative viability,LU99A; first compound 158.11 µM,0.335
same,relative viability,LU99A; first compound 500 µM,0.0775
same,relative viability,LCLC-97TM1; first compound 5 µM,0.293
same,relative viability,LCLC-97TM1; first compound 15.81 µM,0.225
same,relative viability,LCLC-97TM1; first compound 50 µM,0.229
same,relative viability,LCLC-97TM1; first compound 158.11 µM,0.125
same,relative viability,LCLC-97TM1; first compound 500 µM,0.0538
same,relative viability,NCI-H1944; first compound 5 µM,0.511
same,relative viability,NCI-H1944; first compound 15.81 µM,0.487
same,relative viability,NCI-H1944; first compound 50 µM,0.473
same,relative viability,NCI-H1944; first compound 158.11 µM,0.307
same,relative viability,NCI-H1944; first compound 500 µM,0.345
same,relative viability,ChaGo-K-1; first compound 5 µM,0.827
same,relative viability,ChaGo-K-1; first compound 15.81 µM,0.778
same,relative viability,ChaGo-K-1; first compound 50 µM,0.85
same,relative viability,ChaGo-K-1; first compound 158.11 µM,0.536
same,relative viability,ChaGo-K-1; first compound 500 µM,0.436
same,relative viability,H3255; first compound 5 µM,0.816
same,relative viability,H3255; first compound 15.81 µM,0.847
same,relative viability,H3255; first compound 50 µM,0.833
same,relative viability,H3255; first compound 158.11 µM,0.733
same,relative viability,H3255; first compound 500 µM,0.853
same,relative viability,NCI-H441; first compound 5 µM,1.09
same,relative viability,NCI-H441; first compound 15.81 µM,0.803
same,relative viability,NCI-H441; first compound 50 µM,1.39
same,relative viability,NCI-H441; first compound 158.11 µM,0.788
same,relative viability,NCI-H441; first compound 500 µM,0.0052
same,relative viability,NCI-H1792; first compound 5 µM,0.691
same,relative viability,NCI-H1792; first compound 15.81 µM,0.616
same,relative viability,NCI-H1792; first compound 50 µM,0.57
same,relative viability,NCI-H1792; first compound 158.11 µM,0.135
same,relative viability,NCI-H1792; first compound 500 µM,0.047
same,relative viability,NCI-H460; first compound 5 µM,0.633
same,relative viability,NCI-H460; first compound 15.81 µM,0.529
same,relative viability,NCI-H460; first compound 50 µM,0.613
same,relative viability,NCI-H460; first compound 158.11 µM,0.418
same,relative viability,NCI-H460; first compound 500 µM,0.291
same,relative viability,LC-2-ad; first compound 5 µM,0.771
same,relative viability,LC-2-ad; first compound 15.81 µM,0.813
same,relative viability,LC-2-ad; first compound 50 µM,0.825
same,relative viability,LC-2-ad; first compound 158.11 µM,0.283
same,relative viability,LC-2-ad; first compound 500 µM,0.01
same,relative viability,NCI-H23; first compound 5 µM,0.212
same,relative viability,NCI-H23; first compound 15.81 µM,0.274
same,relative viability,NCI-H23; first compound 50 µM,0.218
same,relative viability,NCI-H23; first compound 158.11 µM,0.151
same,relative viability,NCI-H23; first compound 500 µM,0.0026
same,relative viability,NCI-H1437; first compound 5 µM,1.11
same,relative viability,NCI-H1437; first compound 15.81 µM,1.13
same,relative viability,NCI-H1437; first compound 50 µM,1.08
same,relative viability,NCI-H1437; first compound 158.11 µM,0.604
same,relative viability,NCI-H1437; first compound 500 µM,0.855
same,relative viability,PC-3 [JPC-3]; first compound 5 µM,0.777
same,relative viability,PC-3 [JPC-3]; first compound 50 µM,0.909
same,relative viability,PC-3 [JPC-3]; first compound 158.11 µM,0.464
same,relative viability,PC-3 [JPC-3]; first compound 500 µM,0.114
same,relative viability,HARA; first compound 5 µM,0.37
same,relative viability,HARA; first compound 15.81 µM,0.0178
same,relative viability,HARA; first compound 50 µM,0.302
same,relative viability,HARA; first compound 158.11 µM,0.204
same,relative viability,HARA; first compound 500 µM,0.041
same,relative viability,NCI-H322M; first compound 5 µM,0.547
same,relative viability,NCI-H322M; first compound 15.81 µM,0.508
same,relative viability,NCI-H322M; first compound 50 µM,0.606
same,relative viability,NCI-H322M; first compound 158.11 µM,0.638
same,relative viability,NCI-H322M; first compound 500 µM,0.269
